Biological target: T1, human MC4 receptor (Homo sapiens, UniProt P32245)
T1 construct: purchased Biolinks K.K; host or cells: HEK-293
Test: MC4 receptor binding experiment ([125I]Nle4-D-Phe7-α-MSH displacement)
Settings: human MC4 receptor expressing HEK-293 cell membrane; [125I]Nle4-D-Phe7-α-MSH 0.2 nM, 25° C.
Protocol: The MC4 receptor binding experiment was performed according to the method described in Pharmacology & Toxicology, 79, 161-165, 1996. The human MC4 receptor expressing-cell membrane obtained by expressing the human MC4 receptor in a HEK-293 cell was purchased from Biolinks K.K. The cell membrane was homogenized with 50 mM tris hydrochloride buffer (pH 7.4) containing 2 mM ethylenediaminetetraacetic acid, 10 mM calcium chloride, and 100 μM phenylmethylsulfonyl fluoride. The homogenate was centrifuged at 48,000×g at 4° C. for 20 min. The sediment obtained by centrifugation was rehomogenized with the same buffer, and the homogenate was centrifuged at 48,000×g at 4° C. for 20 min. This procedure was repeated twice. The sediment was suspended in 50 mM tris hydrochloride buffer (pH 7.4) containing 2 mM ethylenediaminetetraacetic acid, 10 mM calcium chloride, 100 μM phenylmethylsulfonyl fluoride, and 0.1% bovine serum albumin at a protein concentration of 100 μg/ml, and the suspension was used as a crude membrane preparation for the binding experiment. The crude membrane preparation (0.25 ml, 25 μg protein) was reacted with [^125I]Nle^4-D-Phe^7-α-MSH (final concentration, 0.2 nM) at 25° C. for 120 min. After completion of the reaction, the reaction solution was filtered by suction, using a cell harvester for the receptor binding experiment, onto a GF/C glass fiber filter paper immersed in 50 mM tris hydrochloride buffer (pH 7.4) containing 0.5% bovine serum for 2 h. Radioactivity on the filter paper was measured using a γ counter. The quantity of binding in the presence of 1 μM Nle^4-D-Phe^7-α-MSH was obtained as nonspecific binding, and specific binding was obtained by deducting the nonspecific binding from the total quantity, binding in the absence of 1 μM Nle^4-D-Phe^7-α-MSH. The test drug was dissolved in 100% DMSO solution and added to the membrane preparation at the same time as [^125I]Nle^4-D-Phe^7-α-MSH. The IC50 value was obtained from the inhibition curve in the range of 10^−10 to 10^−5 M. The binding test results of representative compounds are shown in Table 21 as examples.

T1 sequence (P32245 whole entry): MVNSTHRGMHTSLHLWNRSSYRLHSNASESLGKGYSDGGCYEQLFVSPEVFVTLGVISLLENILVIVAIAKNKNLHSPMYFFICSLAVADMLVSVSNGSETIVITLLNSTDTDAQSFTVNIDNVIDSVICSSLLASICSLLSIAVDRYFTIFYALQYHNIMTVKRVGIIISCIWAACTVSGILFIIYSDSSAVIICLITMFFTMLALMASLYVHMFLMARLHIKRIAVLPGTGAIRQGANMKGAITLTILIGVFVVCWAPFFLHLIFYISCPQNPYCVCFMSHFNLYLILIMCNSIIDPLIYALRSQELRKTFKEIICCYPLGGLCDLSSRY

Row | Compound | IC50
1 | Cc1ccc2nc(N[C@H]3CCN(C(=O)Cc4ccc(OC(F)(F)F)cc4)C3)nc(N(C)C)c2c1 [Compound 1-003] | 18 nM
2 | COc1ccc2nc(N[C@H]3CCN(C(=O)Cc4ccc(OC(F)(F)F)cc4)C3)nc(N(C)C)c2c1 [Compound 1-005] | 2.8 nM
3 | Cc1ccc2nc(N[C@H]3CCN(C(=O)Cc4ccc(OC(F)(F)F)cc4)C3)nc(NCCc3ccccn3)c2c1 [Compound 1-019] | 10 nM
4 | COc1ccc2nc(N[C@H]3CCN(C(=O)Cc4ccc(OC(F)(F)F)cc4)C3)nc(N[C@@H]3CCN(C(C)=O)C3)c2c1 [Compound 1-032] | 0.4 nM
5 | COc1ccc2nc(N[C@H]3CCN(C(=O)Cc4ccc(OC(F)(F)F)cc4)C3)nc(N[C@@H]3CCN(S(C)(=O)=O)C3)c2c1 [Compound 1-040] | 0.4 nM
6 | O=C(c1ccc(F)cc1)C1CCN(c2nc(N[C@H]3CCN(C(=O)Cc4ccccc4-c4ccccc4)C3)nc3ccccc23)CC1 [Compound 1-073] | 39 nM
7 | COc1ccc2nc(N[C@H]3CCN(C(=O)Cc4ccc(OC(F)(F)F)cc4)C3)nc(N3CCC(S(C)(=O)=O)CC3)c2c1 [Compound 1-078] | 1.5 nM
8 | O=C(Cc1ccc(OC(F)(F)F)cc1)N1CC[C@H](Nc2nc(N3CCC(N4CCOCC4)CC3)c3ccc(F)cc3n2)C1 [Compound 1-092] | 37 nM
9 | O=C(Cc1ccccc1-c1ccccc1)N1CC[C@H](Nc2nc(N3CCC(n4ccnc4)CC3)c3ccccc3n2)C1 [Compound 1-095] | 22 nM
10 | O=C(Cc1ccccc1-c1ccccc1)N1CC[C@H](Nc2nc(N3CCc4ccccc4C3)c3ccc(F)cc3n2)C1 [Compound 1-101] | 68 nM
11 | O=C1CN(c2nc(N[C@H]3CCN(C(=O)Cc4ccccc4-c4ccccc4)C3)nc3ccccc23)CCN1 [Compound 1-128] | 7.3 nM
12 | O=C1CN(c2nc(N[C@H]3CCN(C(=O)Cc4cc(F)ccc4-c4ccc(OC(F)(F)F)cc4)C3)nc3cc(F)ccc23)CCN1 [Compound 1-133] | 4.4 nM
13 | CN(C)C(=O)N1CCN(c2nc(N[C@H]3CCN(C(=O)Cc4ccc(OC(F)(F)F)cc4)C3)nc3ccccc23)CC1 [Compound 1-174] | 21 nM
14 | COc1ccc2nc(N[C@H]3CCN(C(=O)Cc4ccc(OC(F)(F)F)cc4)C3)nc(N3CCN(C(=O)c4cccnc4)CC3)c2c1 [Compound 1-176] | 1 nM
15 | CO[C@H]1CN(c2nc(N[C@H]3CCN(C(=O)Cc4ccc(OC(F)(F)F)cc4)C3)nc3ccccc23)C[C@H]1OC [Compound 1-206] | 2.3 nM
16 | COc1ccc2nc(N[C@H]3CCN(C(=O)Cc4ccc(OC(F)(F)F)cc4)C3)cc(N3CCOCC3)c2c1 [Compound 3-011, (S)-1-(3-(6-methoxy-4-morpholinoquinolin-2-ylamino)pyrrolidin-1-yl)-2-(4-trifluoromethoxyphenyl)ethanone] | 6.8 nM
17 | Cc1cc(N[C@H]2CCN(C(=O)Cc3ccc(OC(F)(F)F)cc3)C2)nc2ccc(F)cc12 [Compound 3-019] | 78 nM
18 | Cc1cc(N[C@H]2CCN(C(=O)Cc3ccc(OC(F)(F)F)cc3)C2)nc2ccc(O)cc12 [Compound 3-022] | 9.5 nM
19 | COc1ccc2nc(N[C@H]3CCN(C(=O)Cc4ccc(OC(F)(F)F)cc4)C3)cc(C)c2c1 [Compound 3-023] | 2.4 nM
20 | COc1cc(N[C@H]2CCN(C(=O)Cc3ccc(OC(F)(F)F)cc3)C2)nc2ccc(C)cc12 [Compound 3-034] | 16 nM
21 | Cc1cc(N[C@H]2CCN(C(=O)C3(c4ccc(Cl)cc4)CC3)C2)nc2ccc(O)cc12 [Compound 3-038] | 20 nM
22 | COc1ccc2nc(N[C@H]3CCN(C(=O)C(C)(C)c4ccc(Cl)cc4)C3)cc(C)c2c1 [Compound 3-041] | 46 nM
23 | Cc1cc(N[C@H]2CCN(S(C)(=O)=O)C2)nc(N[C@H]2CCN(C(=O)Cc3ccc(OC(F)(F)F)cc3)C2)n1 [Compound 4-022] | 30 nM
24 | CCCN(CC1CC1)c1cc(C)nc(N[C@H]2CCN(C(=O)Cc3ccc(OC(F)(F)F)cc3)C2)n1 [Compound 4-035] | 52 nM
25 | Cc1cc(N2CCOCC2)nc(N[C@H]2CCN(C(=O)Cc3ccc(OC(F)(F)F)cc3)C2)n1 [Compound 4-044] | 56 nM
